Measured values reported in patent US8598344B2, “CDKI pathway inhibitors and uses thereof” (Senex Biotechnology, priority 2009, dated 2013).

Key:
HIV-1 = conditions: read-out: EC50, decrease in fraction of HIV-infected (p24-positive) cells; day 5
Description: HIV replication was assayed in a cell-to-cell model of HIV-1 transmission using chronically infected H9IIIB as donor cells cocultivated with uninfected CEM-ss leukemia cell line as recipient cells. 1 ml of RPMI1640 medium (+10% Fetal Bovine Serum+Penicillin/Streptomycin+glutamine) containing 10^4 H9IIIB cells was mixed with 1 ml of the same medium containing 10^6 CEM-ss cells. […] The suspended cells were placed into a 25 cm^2 flask and incubated at 37° C., 5% CO2. On day 3, the cells were counted with a light microscope and an hemocytometer after trypan blue staining, which was used to determine the fraction of viable (trypan blue negative) cells. On day 5, the fraction of HIV-infected cells was determined using the K57-FITC conjugated monoclonal antibody to the HIV p24 antigen. For this measurement, the cells in each flask were mixed, 1 ml of cell culture was removed from each flask and placed into round bottom centrifuge tubes. The cells were separated from the medium by centrifugation at 1500 RPM for 5 minutes, the supernatants were aspirated and discarded and the cell pellets suspended in a fixative. […] The final pellets were suspended in 0.5 ml of PBS and the percentage of HIV p24-positive cells was determined by FACS analysis.

[1] = test system: irradiated, senescent WI38 fibroblasts; assay: Paracrine antiapoptotic activity of irradiated, senescent WI38 fibroblasts (survival of C8 cells in low serum); assay type: cell-based; conditions: C8 cell luciferase, 0.5% serum
Excerpt: As discussed by Roninson (Cancer Lett. 179, 1-14, 2002), all the treatments known to induce the production of tumor-promoting secreted factors by cancer-associated stromal fibroblasts activate the CDKI pathway, including exposure to ionizing radiation and the induction of senescence. Since this pathway is the target of compounds according to the invention, such compounds may be the first agents to target tumor-supporting activities of cancer-associated fibroblasts. Some of the fibroblast-activating treatments include exposure to ionizing radiation and the induction of senescence through various means (Krtolica et al., Proc. Natl. Acad. Sci. USA 98, 12072, 2001). We have adopted a 96-well assay for anti-apoptotic activity that we have previously used with p21-expressing fibrosarcoma cells (Chang et al., Proc. Natl. Acad. Sci. USA 97, 4291-4296, 2000), to measure a tumor-promoting activity of normal proliferating fibroblasts and fibroblasts exposed to ionizing radiation and consequently developing the senescent phenotype. In this assay, WI38 fibroblasts are irradiated with 10 Gy using an MDS Nordion Gammacell 40 irradiator, or left unirradiated. […] On day 7, cells are lysed and the amount of luciferase activity associated with C8 cells is determined. […]

HCT116 = assay: Colon carcinoma cell proliferation, FACS count of live cells; assay type: cell-based, human; conditions: 72 hrs, 2.5, 5 or 10 μM
Description: (§1) Inhibition of β-catenin, which is positively regulated by CDK8, was reported to inhibit proliferation of some colon carcinoma cell lines (Firestein et al., 2008). We have therefore determined the ability of compound 1 to inhibit the proliferation of several colon carcinoma cell lines, including human DLD1, HCT116, SW480 and murine C26. This analysis waqs carried out by incubating cells for 72 hrs in the presence of 0, 2.5, 5 or 10 μM compound 1, followed by FACS measurement of the number of live cells, as defined by the lack of uptake of membrane-impermeable dye propidium iodide.

DLD1 cells = assay: as above; assay type: cell-based, human; conditions: 72 hrs; read-out: IC50, growth inhibition
Description: as §1

SW480 = assay: as above; assay type: cell-based, human; conditions: 72 hrs, 2.5, 5 or 10 μM
Description: as §1

PRKG2 = biological target: T1, PRKG2 (Homo sapiens, UniProt Q13237); assay: KinomeScan competition binding assay; conditions: 10 μM compound
T1 construct: purchased KinomeScan, a division of Ambit Biosciences
Description: (§2) The KINOMEscan assay has been described in detail in Fabian et al., Nat. Biotechnol. 23: 329 (2005) and Karaman et al., Nat. Biotechnol. 26: 127 (2008).
(§3) The KinomeScan assay is based on a competition binding assay that quantitatively measures the ability of a compound to compete with an immobilized, ATP site directed ligand. The assay is performed by combining three components: DNA-tagged kinase; immobilized ligand; and a test compound. The ability of the test compound to compete with the immobilized ligand is measured via quantitative PCR of the DNA tag.

ALK = biological target: T2, ALK (Homo sapiens, UniProt Q9UM73); assay: KinomeScan competition binding assay; conditions: 10 μM compound
T2 construct: purchased KinomeScan, a division of Ambit Biosciences
Description: as §2, §3

PIM2 = biological target: T3, PIM2 (Homo sapiens, UniProt Q9P1W9); assay: KinomeScan competition binding assay; conditions: 10 μM compound
T3 construct: purchased KinomeScan, a division of Ambit Biosciences
Description: as §2, §3

MET = biological target: T4, MET (Homo sapiens, UniProt P08581); assay: KinomeScan competition binding assay; conditions: 10 μM compound
T4 construct: purchased KinomeScan, a division of Ambit Biosciences
Description: as §2, §3

ROCK2 = biological target: T5, ROCK2 (Homo sapiens, UniProt O75116); assay: KinomeScan competition binding assay; conditions: 10 μM compound
T5 construct: purchased KinomeScan, a division of Ambit Biosciences
Description: as §2, §3

RIOK2 = biological target: T6, RIOK2 (Homo sapiens, UniProt Q9BVS4); assay: KinomeScan competition binding assay; conditions: 10 μM compound
T6 construct: purchased KinomeScan, a division of Ambit Biosciences
Description: as §2, §3

ROCK1 = biological target: T7, ROCK1 (Homo sapiens, UniProt Q13464); assay: KinomeScan competition binding assay; conditions: 10 μM compound
T7 construct: purchased KinomeScan, a division of Ambit Biosciences
Description: as §2, §3

ROS1 = biological target: T8, ROS1 (Homo sapiens, UniProt P08922); assay: KinomeScan competition binding assay; conditions: 10 μM compound
T8 construct: purchased KinomeScan, a division of Ambit Biosciences
Description: as §2, §3

PKACa = biological target: T9, PKACa (Homo sapiens, UniProt P17612); assay: KinomeScan competition binding assay; conditions: 10 μM compound
T9 construct: purchased KinomeScan, a division of Ambit Biosciences
Description: as §2, §3

JNK1 = biological target: T10, JNK1 (Homo sapiens, UniProt P45983); assay: KinomeScan competition binding assay; conditions: 10 μM compound
T10 construct: purchased KinomeScan, a division of Ambit Biosciences
Description: as §2, §3

PKACb = biological target: T11, PKACb (Homo sapiens, UniProt P22694); assay: KinomeScan competition binding assay; conditions: 10 μM compound
T11 construct: purchased KinomeScan, a division of Ambit Biosciences
Description: as §2, §3

LTK = biological target: T12, LTK (Homo sapiens, UniProt P29376); assay: KinomeScan competition binding assay; conditions: 10 μM compound
T12 construct: purchased KinomeScan, a division of Ambit Biosciences
Description: as §2, §3

C26 = assay: Colon carcinoma cell proliferation, FACS count of live cells; assay type: cell-based, murine; conditions: 72 hrs, 2.5, 5 or 10 μM
Description: as §1

HUVECs = assay: HUVEC proliferation, 3-day MTT assay; assay type: cell-based, human

T6 sequence (Q9BVS4 whole entry): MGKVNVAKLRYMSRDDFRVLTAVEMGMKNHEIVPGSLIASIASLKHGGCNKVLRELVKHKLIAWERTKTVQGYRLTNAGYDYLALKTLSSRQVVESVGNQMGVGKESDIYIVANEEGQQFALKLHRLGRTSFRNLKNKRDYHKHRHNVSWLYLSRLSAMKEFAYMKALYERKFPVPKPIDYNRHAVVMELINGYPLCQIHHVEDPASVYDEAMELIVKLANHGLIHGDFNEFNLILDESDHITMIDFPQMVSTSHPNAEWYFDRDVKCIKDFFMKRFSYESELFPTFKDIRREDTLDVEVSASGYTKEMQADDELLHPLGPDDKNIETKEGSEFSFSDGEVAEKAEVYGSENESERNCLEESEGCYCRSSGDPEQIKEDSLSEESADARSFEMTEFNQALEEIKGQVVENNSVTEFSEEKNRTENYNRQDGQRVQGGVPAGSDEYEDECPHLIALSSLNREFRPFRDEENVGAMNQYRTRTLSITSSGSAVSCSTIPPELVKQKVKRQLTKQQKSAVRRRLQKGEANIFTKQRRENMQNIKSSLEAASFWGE
T1 sequence (Q13237 whole entry): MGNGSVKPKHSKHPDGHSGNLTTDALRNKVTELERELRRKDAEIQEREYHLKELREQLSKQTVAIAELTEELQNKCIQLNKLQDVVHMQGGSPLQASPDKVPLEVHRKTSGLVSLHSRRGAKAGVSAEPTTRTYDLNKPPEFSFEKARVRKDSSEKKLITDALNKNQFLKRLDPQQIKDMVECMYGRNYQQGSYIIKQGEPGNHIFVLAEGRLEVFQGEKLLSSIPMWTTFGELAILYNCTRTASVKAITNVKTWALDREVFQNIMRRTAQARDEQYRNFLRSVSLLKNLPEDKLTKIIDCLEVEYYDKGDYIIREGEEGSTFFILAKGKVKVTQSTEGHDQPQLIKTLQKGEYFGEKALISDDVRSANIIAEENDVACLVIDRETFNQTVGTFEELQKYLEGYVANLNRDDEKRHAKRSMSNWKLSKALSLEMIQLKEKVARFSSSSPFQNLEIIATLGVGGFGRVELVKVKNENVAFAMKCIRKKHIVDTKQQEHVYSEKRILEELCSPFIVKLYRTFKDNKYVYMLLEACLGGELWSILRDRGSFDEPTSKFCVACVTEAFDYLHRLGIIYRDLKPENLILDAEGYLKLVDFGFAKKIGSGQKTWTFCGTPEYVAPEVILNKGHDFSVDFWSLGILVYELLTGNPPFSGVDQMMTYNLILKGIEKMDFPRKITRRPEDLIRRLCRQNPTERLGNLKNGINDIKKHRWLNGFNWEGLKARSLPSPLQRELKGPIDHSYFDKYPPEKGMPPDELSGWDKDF
T8 sequence (P08922 28-2347): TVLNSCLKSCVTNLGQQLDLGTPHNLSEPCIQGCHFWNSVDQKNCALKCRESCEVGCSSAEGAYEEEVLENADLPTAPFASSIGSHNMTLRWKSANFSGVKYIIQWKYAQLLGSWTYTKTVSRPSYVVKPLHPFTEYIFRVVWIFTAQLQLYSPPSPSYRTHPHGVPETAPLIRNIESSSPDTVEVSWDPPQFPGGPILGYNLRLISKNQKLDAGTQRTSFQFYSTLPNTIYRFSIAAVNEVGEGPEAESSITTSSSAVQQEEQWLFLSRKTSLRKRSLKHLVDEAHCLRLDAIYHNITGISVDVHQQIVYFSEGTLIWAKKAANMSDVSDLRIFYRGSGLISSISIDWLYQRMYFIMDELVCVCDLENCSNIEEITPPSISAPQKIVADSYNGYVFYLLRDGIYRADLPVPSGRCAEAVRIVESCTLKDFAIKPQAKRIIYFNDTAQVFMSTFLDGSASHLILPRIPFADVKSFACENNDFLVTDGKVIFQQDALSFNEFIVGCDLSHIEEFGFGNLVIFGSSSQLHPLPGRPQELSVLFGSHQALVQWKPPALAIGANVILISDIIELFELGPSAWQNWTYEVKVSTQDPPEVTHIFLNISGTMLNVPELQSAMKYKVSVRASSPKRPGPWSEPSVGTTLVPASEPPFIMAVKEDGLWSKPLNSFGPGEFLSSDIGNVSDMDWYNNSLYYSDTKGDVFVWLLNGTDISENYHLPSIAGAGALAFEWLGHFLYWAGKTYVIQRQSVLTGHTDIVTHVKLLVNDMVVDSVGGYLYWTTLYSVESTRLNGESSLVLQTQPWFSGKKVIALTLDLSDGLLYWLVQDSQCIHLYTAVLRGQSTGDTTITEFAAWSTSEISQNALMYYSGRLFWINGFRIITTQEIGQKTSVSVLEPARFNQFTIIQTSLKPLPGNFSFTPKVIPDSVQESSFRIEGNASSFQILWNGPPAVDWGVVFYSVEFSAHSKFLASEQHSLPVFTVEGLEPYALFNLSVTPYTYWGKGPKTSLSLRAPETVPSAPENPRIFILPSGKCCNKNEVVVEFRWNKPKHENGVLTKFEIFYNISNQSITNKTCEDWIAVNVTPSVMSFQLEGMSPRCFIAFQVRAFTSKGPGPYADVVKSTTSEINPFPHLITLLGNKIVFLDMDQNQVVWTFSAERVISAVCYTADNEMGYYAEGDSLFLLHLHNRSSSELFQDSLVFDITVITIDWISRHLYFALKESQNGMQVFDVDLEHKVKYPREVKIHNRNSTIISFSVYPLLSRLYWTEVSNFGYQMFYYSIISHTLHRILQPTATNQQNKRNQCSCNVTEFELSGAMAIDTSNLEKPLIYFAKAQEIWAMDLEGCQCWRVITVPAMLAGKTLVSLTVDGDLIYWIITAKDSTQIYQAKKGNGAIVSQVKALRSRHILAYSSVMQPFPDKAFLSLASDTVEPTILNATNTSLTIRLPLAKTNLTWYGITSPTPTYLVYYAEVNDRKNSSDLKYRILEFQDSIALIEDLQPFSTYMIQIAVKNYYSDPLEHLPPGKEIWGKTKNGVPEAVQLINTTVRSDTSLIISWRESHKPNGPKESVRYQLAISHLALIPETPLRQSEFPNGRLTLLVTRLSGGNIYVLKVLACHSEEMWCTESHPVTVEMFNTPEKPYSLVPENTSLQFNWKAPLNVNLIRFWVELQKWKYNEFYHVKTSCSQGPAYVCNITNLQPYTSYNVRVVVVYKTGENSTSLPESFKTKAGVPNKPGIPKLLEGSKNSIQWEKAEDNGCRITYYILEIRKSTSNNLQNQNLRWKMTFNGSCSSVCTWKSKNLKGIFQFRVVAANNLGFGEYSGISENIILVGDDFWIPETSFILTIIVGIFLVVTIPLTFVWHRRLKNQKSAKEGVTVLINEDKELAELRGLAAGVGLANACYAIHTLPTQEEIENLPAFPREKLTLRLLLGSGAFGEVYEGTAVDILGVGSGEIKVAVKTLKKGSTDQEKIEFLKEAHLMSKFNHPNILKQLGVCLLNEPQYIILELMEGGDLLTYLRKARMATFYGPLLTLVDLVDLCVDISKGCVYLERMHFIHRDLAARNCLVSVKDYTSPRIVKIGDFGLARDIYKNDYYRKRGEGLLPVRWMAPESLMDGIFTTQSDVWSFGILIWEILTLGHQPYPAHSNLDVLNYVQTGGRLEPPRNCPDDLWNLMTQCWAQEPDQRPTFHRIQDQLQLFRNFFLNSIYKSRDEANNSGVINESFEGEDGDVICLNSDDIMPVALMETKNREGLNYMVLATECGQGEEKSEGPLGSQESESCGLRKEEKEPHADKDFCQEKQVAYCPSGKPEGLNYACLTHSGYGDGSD
T5 sequence (O75116 whole entry): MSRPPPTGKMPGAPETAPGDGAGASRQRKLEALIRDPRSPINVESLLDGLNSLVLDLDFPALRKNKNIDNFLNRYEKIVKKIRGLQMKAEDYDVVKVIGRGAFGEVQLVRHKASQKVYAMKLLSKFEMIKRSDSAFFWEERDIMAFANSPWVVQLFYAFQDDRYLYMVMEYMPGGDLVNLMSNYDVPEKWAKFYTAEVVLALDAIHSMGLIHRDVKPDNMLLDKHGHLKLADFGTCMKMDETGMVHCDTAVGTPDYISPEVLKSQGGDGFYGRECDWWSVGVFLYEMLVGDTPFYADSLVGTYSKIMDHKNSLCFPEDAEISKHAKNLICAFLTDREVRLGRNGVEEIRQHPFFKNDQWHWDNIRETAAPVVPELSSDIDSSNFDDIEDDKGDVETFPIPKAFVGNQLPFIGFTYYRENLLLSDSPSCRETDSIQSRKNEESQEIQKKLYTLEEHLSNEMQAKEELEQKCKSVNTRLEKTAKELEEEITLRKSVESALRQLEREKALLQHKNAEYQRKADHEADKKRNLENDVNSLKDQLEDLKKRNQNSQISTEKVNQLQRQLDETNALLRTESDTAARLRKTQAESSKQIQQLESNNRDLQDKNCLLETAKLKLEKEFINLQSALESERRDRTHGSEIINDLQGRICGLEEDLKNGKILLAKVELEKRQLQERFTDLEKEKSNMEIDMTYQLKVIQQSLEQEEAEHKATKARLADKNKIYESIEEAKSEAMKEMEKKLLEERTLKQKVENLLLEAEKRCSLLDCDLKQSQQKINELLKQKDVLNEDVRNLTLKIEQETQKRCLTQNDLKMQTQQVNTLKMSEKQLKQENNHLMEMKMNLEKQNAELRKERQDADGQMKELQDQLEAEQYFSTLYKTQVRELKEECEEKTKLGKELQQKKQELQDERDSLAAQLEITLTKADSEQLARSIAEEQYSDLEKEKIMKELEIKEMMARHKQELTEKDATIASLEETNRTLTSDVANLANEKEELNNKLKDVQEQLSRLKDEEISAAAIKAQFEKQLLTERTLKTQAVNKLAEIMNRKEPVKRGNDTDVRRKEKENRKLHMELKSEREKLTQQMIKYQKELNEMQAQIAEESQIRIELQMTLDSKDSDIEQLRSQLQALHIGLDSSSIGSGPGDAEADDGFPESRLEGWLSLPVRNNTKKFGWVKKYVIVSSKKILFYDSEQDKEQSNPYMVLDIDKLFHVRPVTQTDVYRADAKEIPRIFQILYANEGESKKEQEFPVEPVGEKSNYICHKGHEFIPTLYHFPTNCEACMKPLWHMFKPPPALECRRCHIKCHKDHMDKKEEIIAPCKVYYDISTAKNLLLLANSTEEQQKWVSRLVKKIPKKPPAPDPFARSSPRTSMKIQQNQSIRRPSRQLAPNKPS

## N#Cc1ccc2ncnc(NCCc3ccccc3)c2c1 [compound 1]
HIV-1
  EC50: 0.58 µM
KB-3-1 carcinoma cells
  IC50 KB-3-1 relative to IC50 for HUVEC cells: 4.3 fold
KB-3-1 carcinoma cells; read-out: IC50, KB-3-1 proliferation, 3-day MTT
  IC50: 44.2 µM
[1]
  decrease of paracrine tumor-promoting (antiapoptotic) effect of irradiated/senescent fibroblasts: ~3 fold
HCT116
  growth of colon carcinoma cell line: inhibited the growth
DLD1 cells
  IC50: ~5 µM
SW480
  growth of colon carcinoma cell line: inhibited the growth
PRKG2
  POC binding, PRKG2: 85 POC
ALK
  POC binding, ALK: 78 POC
PIM2
  POC binding, PIM2: 52 POC
MET
  POC binding, MET: 86 POC
ROCK2
  POC binding, ROCK2: 89 POC
RIOK2
  POC binding, RIOK2: 23 POC
ROCK1
  POC binding, ROCK1: 79 POC
ROS1
  POC binding, ROS1: 63 POC
PKACa
  POC binding, PKACa: 82 POC
JNK1
  POC binding, JNK1: 45 POC
PKACb
  POC binding, PKACb: 89 POC
LTK
  POC binding, LTK: 100 POC
C26
  growth of colon carcinoma cell line: inhibited the growth
HUVECs; 0.625 or 1.25 μM
  effect on HUVEC cell number relative to untreated control: little or no effect
HUVECs; 3-day MTT
  IC50: 10.4 µM
